The source of these data is patent US7214709B2, “Arginine/ascorbic acid mixed powder as an oral supplement” (priority 2000, dated 2007).

For this test, the system named is O=NOO- derived from the reaction of NO· with O2·-. Briefly: Formation of peroxynitrite from reaction of NO radical with superoxide. The settings on record: in vitro and in vivo condition. An excerpt: Ascorbate is a typical scavenger of O2·^− and thus could inhibit the production of O═NOO^−. […] Based on this discovery, an administration of a great amount of arginine combined with ascorbic acid in an amount 1/5 times and more, for example from 1/5 to 20 times, especially from 1.5 to 20 times the amount of the arginine can be expected to prevent peroxidative injuries of cells caused by the ion, O═NOO^−. Therefore, the present invention also includes the following embodiments.

As to `O=C1O[C@H]([C@@H](O)CO)C(O)=C1O` [ascorbic acid, L-ascorbic acid], the “Formation of O=NOO- (peroxynitrite)” value is listed as “retards formation”.
